Laboratory results published in US11987572B2, “Therapeutic compounds and methods of use thereof” (REGENTS OF THE UNIVERSITY OF MINNESOTA, priority 2019, dated 2024).
Where two headings read alike, the source gives them in different places.

How the values were obtained:
Assay type in all cases: binding
[1] = biological target: T1, BRD4-D1 (Homo sapiens, UniProt O60885); assay: Fluorescence anisotropy competition with Fl-JQ1
T1 construct: His6 BRD4 D1 were expressed and purified as reported by A. K. Urick; His6; made in house

[2] = biological target: T2, BRD4-D2 (Homo sapiens, UniProt O60885); assay: Fluorescence anisotropy competition with Fl-JQ1
T2 construct: the second bromodomain of BRD4 (residues 333-460); host or cells: E. coli BL21 Star (DE3)

[3] = biological target: T3, p38α (Homo sapiens, UniProt Q16539); assay: p38 competitive inhibition assay (KINOMEscan, Eurofins DiscoverX); conditions: mean of two biological replicates
T3 construct: phage display fusion; purchased Eurofins DiscoverX (Fremont California), KINOMEscan service

[4] = biological target: T4, His9-BRD4 D1 (Homo sapiens, UniProt O60885); assay: AlphaScreen assay with His9-BRD4 D1; conditions: mean of two technical replicates
T4 construct: 7.5-60 nM for His9-tagged BRD4 D1; made in house; host or cells: E. coli BL21(DE3) with pRARE

[5] = mean and standard deviation of three independent trials, read-out: IC50 BRD4-D1
[6] = mean and SEM of three biological replicates, read-out: BRD4 D1 IC50 by FA

T3 sequence (Q16539 whole entry, the tested form may be a part): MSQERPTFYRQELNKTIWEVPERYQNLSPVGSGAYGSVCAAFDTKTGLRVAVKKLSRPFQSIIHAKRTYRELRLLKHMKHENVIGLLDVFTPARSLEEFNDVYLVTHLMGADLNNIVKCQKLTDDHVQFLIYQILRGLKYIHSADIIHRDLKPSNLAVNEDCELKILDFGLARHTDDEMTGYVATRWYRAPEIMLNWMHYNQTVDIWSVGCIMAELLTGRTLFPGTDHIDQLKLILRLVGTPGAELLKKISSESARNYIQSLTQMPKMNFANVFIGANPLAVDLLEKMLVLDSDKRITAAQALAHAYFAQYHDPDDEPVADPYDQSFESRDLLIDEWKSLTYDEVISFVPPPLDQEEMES

Cc1cc(C)cc(Oc2nccc(-c3c(C)nnn3C3CCNCC3)n2)c1
IC50 [1, 5]: 3.01 µM
IC50 [2]: 5.87 µM

Cc1cc(C)cc(Oc2nccc(-c3c(C(C)C)nnn3C3CCNCC3)n2)c1
IC50 [1, 6]: > 100 µM

CCCc1nnn(C2CCNCC2)c1-c1ccnc(Oc2cc(C)cc(C)c2)n1
IC50 [1, 6]: > 100 µM

Cc1cc(C)cc(Oc2cncc(-c3c(C)nnn3C3CCNCC3)c2)c1
IC50 [1, 6]: > 100 µM

Cc1cc(C)cc(Oc2cc(-c3c(C)nnn3C3CCNCC3)ccn2)c1
IC50 [1, 6]: 97 ± 2.6 µM

Cc1cc(C)cc(Oc2ccnc(-c3c(C)nnn3C3CCNCC3)c2)c1
IC50 [1, 6]: > 100 µM

Cc1cc(C)cc(Nc2cccc(-c3c(C)nnn3C3CCNCC3)n2)c1
IC50 [1, 6]: 4.5 ± 0.35 µM
Kd [3]: > 0.025 µM

Cc1cc(C)cc(Nc2nccc(-c3c(-c4ccc(F)cc4)nnn3C3CCNCC3)n2)c1
IC50 [1, 6]: > 100 µM
Kd [3]: 0.12 ± 0.051 µM

Cc1cc(C)cc(Oc2nccc(-c3c(C4CC4)nnn3C3CCN(C(=N)N)CC3)n2)c1
IC50 [1, 6]: 61 ± 8.1 µM

Cc1cc(C)cc(Nc2cccc(-c3c(C)nnn3C3CCN(C(=N)N)CC3)n2)c1
IC50 [1, 6]: 4.5 ± 0.35 µM

Cc1ccc(-c2ncn(C3CCNCC3)c2-c2ccnc(Nc3cc(C)cc(C)c3)n2)cc1
IC50 [1, 6]: 1.2 ± 0.2 µM
IC50 [4]: 1.1 µM

Cc1cc(C)cc(Nc2nccc(-c3c(-c4ccc(Cl)cc4)ncn3C3CCN(C(=N)N)CC3)n2)c1
IC50 [1, 6]: 1.6 µM
IC50 [4]: 1.4 µM

Cc1cc(C)cc(Nc2nccc(-c3c(-c4ccccc4)ncn3C3CCNCC3)n2)c1
IC50 [1, 6]: 4.5 ± 0.2 µM
IC50 [4]: 2.6 µM

Cc1ccc(Nc2nccc(-c3c(-c4ccc(F)cc4)ncn3C3CCNCC3)n2)cc1C
IC50 [1, 6]: 1.3 ± 0.2 µM

Fc1ccc(-c2ncn(C3CCNCC3)c2-c2ccnc(Oc3cc(F)cc(F)c3)n2)cc1
IC50 [1, 6]: > 250 µM

Cc1cc(C)cc(Nc2nccc(-c3c(CO)nnn3C3CCNCC3)n2)c1
IC50 [4]: 160 µM

Cc1cc(C)cc(Nc2nccc(-c3c(-c4ccc(C(F)(F)F)cc4)ncn3C3CCN(CCN(C)C)CC3)n2)c1
IC50 [1, 6]: 0.15 ± 0.03 µM
IC50 [4]: 0.2 µM

CC(=O)NCCN1CCC(n2cnc(-c3ccc(C(F)(F)F)cc3)c2-c2ccnc(Nc3cc(C)cc(C)c3)n2)CC1
IC50 [1, 6]: 0.42 ± 0.01 µM
IC50 [4]: 1.5 µM

Cc1cc(C)cc(Oc2cccc(-c3c(-c4ccc(C(F)(F)F)cc4)ncn3C3CCN(CCN)CC3)n2)c1
IC50 [1, 6]: 1.1 ± 0.01 µM
IC50 [4]: 1.3 µM
Kd [3]: > 30 µM

Cc1cc(C)cc(Oc2nccc(-c3c(C)nnn3C3CCN(C(=N)N)CC3)n2)c1 [drawing 179]
IC50 [1, 5]: 9.7 ± 1.8 µM

Cc1cc(C)cc(Oc2cccc(-c3c(C)nnn3C3CCN(C(=N)N)CC3)c2)c1 [drawing 180]
IC50 [1, 5]: 12 ± 1.1 µM

Cc1cc(C)cc(Oc2cccc(-c3c(C)nnn3C3CCN(C(=N)N)CC3)n2)c1 [drawing 181]
IC50 [1, 5]: 3.6 ± 0.05 µM

Cc1cc(C)cc(Oc2cc(-c3c(C)nnn3C3CCN(C(=N)N)CC3)ccn2)c1 [drawing 182]
IC50 [1, 5]: 97 ± 2.6 µM

Cc1cc(C)cc(Oc2ccnc(-c3c(C)nnn3C3CCN(C(=N)N)CC3)c2)c1 [drawing 184]
IC50 [1, 5]: > 100 µM

Cc1cc(Oc2cccc(-c3c(C)nnn3C3CCNCC3)n2)cc(C(C)C)c1 [drawing 187]
IC50 [2]: 4.76 µM

CCC(C)c1cc(C)cc(Oc2cccc(-c3c(C)nnn3C3CCNCC3)n2)c1 (centres unmarked) [drawing 188]
IC50 [1, 5]: 3.21 ± 0.3 µM
IC50 [2]: 7.35 µM

Cc1cc(Oc2cccc(-c3c(C)nnn3C3CCNCC3)n2)cc(C2CCCC2)c1 [drawing 189]
IC50 [1, 5]: 4.44 µM
IC50 [2]: 7.35 µM

CCCCc1cc(CCCC)cc(Oc2cccc(-c3c(C)nnn3C3CCNCC3)n2)c1 [drawing 195]
IC50 [1, 5]: 8.61 µM
IC50 [2]: 27.7 µM

Cc1nnn(C2CCNCC2)c1-c1cccc(Oc2cc(C3CCCCC3)cc(C3CCCCC3)c2)n1 [drawing 197]
IC50 [1, 5]: 62.6 µM

Cc1nnn(C2CCNCC2)c1-c1cccc(Oc2cc(C(F)(F)F)cc(C(F)(F)F)c2)n1 [drawing 199]
IC50 [2]: 45.6 µM

Cc1cc(C)cc(Oc2nccc(-c3c(C)nnn3C3CCN(C(=N)N)CC3)n2)c1 [drawing 222]
IC50 [1, 6]: 9.7 ± 1.8 µM

Cc1cc(C)cc(Oc2cccc(-c3c(C)nnn3C3CCN(C(=N)N)CC3)c2)c1 [drawing 223]
IC50 [1, 6]: 12 ± 1.1 µM

Cc1cc(C)cc(Oc2cccc(-c3c(C)nnn3C3CCN(C(=N)N)CC3)n2)c1 [drawing 224]
IC50 [1, 6]: 3.6 ± 0.05 µM

Cc1cc(C)cc(Oc2cc(-c3c(C)nnn3C3CCN(C(=N)N)CC3)ccn2)c1 [drawing 225]
IC50 [1, 6]: 97 ± 2.6 µM

Cc1cc(C)cc(Oc2ccnc(-c3c(C)nnn3C3CCN(C(=N)N)CC3)c2)c1 [drawing 227]
IC50 [1, 6]: > 100 µM

Cc1cc(Oc2cccc(-c3c(C)nnn3C3CCNCC3)n2)cc(C(C)C)c1 [drawing 251]
IC50 [4]: 4.76 µM

CCC(C)c1cc(C)cc(Oc2cccc(-c3c(C)nnn3C3CCNCC3)n2)c1 (centres unmarked) [drawing 252]
IC50 [1, 6]: 3.21 ± 0.3 µM
IC50 [4]: 7.35 µM

Cc1cc(Oc2cccc(-c3c(C)nnn3C3CCNCC3)n2)cc(C2CCCC2)c1 [drawing 253]
IC50 [1, 6]: 4.44 µM

CCCCc1cc(CCCC)cc(Oc2cccc(-c3c(C)nnn3C3CCNCC3)n2)c1 [drawing 259]
IC50 [1, 6]: 8.61 µM
IC50 [4]: 27.7 µM

Cc1nnn(C2CCNCC2)c1-c1cccc(Oc2cc(C3CCCCC3)cc(C3CCCCC3)c2)n1 [drawing 261]
IC50 [1, 6]: 62.6 µM

Cc1nnn(C2CCNCC2)c1-c1cccc(Oc2cc(C(F)(F)F)cc(C(F)(F)F)c2)n1 [drawing 263]
IC50 [4]: 45.6 µM
